According to patent US6713475B2, “Tricyclic benzodiazepines as vasopressin receptor antagonists” (Ortho-McNeil Pharmaceutical, Inc., priority 1999, dated 2004):

Assays:
human V-1 receptor = biological target: T1, human V-1 receptor (Homo sapiens, UniProt P37288); test: In vitro recombinant vasopressin receptor binding assay (V1 Bdg), displacement of 3H-arginine vasopressin; conditions: for inhibition at 0.1 µM: read-out: V1 Bdg (% inh, 0.1 uM); for V1 Bdg % inh: 1 uM; for inhibition at 10 µM: read-out: V1 Bdg % inh
T1 construct: expressed in transfected cells; host or cells: HEK-293
Description: In vitro Recombinant Vasopressin Receptor Binding Assay
Compounds were assessed for their ability to displace ^3H-arginine vasopressin from the human V-1 or V-2 receptor in HEK-293 cells. Assay buffer is 50 mM Tris-Cl, 5 mM MgCl2, 0.1% BSA (pH 7.5) containing 5 ug/ml of aprotinin, leupeptin, pepstatin, 50 ug/ml bacitracin, and 1 mM Pefabloc. ^3H-vasopressin is ^3H-arginine-8-vasopressin (68.5 Ci/mmol, final concentration in assay is 0.65-0.75 nM). Into wells of 96-well round bottom polypropylene plates were added buffer, test compound, membrane (containing cloned human V-1 or V-2 receptor), and ^3H-vasopressin. The reaction plates were allowed to sit at room temperature for one hour. The samples were filtered through Unifilter GF/C plates (presoaked in 0.3 polyethyleneimine). The plates were washed 5 times with cold physiological saline containing 0.05% Tween 20. After drying, the bottom of the filter plates were sealed and 0.025 ml of Microscint-20 was added to each filter. The top of the plate was sealed, and the plate was counted. Non-specific binding was determined by the addition of 1.25 uM arginine-8-vasopressin in those wells.

V2 = V2 (Homo sapiens, UniProt P30518); test: In vitro recombinant vasopressin receptor binding assay (V2 Bdg), displacement of 3H-arginine vasopressin; set-up: expressed in transfected cells; host or cells: HEK-293; conditions: for IC50: membrane with cloned human V-2 receptor (HEK-293); for V2 Bdg % inh: 0.1 uM, printed in parentheses in place of IC50
In short: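 Displacement of ³H-vasopressin from membranes of HEK-293 cells bearing cloned human V-2 receptor, incubated with test compound one hour at room temperature. Bound label was collected on PEI-soaked GF/C filters, washed with cold saline/0.05% Tween 20, and counted by scintillation.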

T1 sequence (P37288 whole entry): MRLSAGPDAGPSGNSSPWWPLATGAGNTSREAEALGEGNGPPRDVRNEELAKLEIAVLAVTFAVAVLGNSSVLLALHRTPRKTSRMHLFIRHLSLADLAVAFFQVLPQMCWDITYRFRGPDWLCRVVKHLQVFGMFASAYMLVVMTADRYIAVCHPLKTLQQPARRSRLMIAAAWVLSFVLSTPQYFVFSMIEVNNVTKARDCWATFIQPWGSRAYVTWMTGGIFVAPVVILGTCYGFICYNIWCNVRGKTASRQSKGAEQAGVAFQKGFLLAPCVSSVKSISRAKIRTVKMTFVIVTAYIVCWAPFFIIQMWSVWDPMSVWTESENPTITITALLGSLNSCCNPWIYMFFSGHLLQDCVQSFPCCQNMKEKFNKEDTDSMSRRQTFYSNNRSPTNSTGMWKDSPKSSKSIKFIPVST
V2, sequence (P30518 whole entry): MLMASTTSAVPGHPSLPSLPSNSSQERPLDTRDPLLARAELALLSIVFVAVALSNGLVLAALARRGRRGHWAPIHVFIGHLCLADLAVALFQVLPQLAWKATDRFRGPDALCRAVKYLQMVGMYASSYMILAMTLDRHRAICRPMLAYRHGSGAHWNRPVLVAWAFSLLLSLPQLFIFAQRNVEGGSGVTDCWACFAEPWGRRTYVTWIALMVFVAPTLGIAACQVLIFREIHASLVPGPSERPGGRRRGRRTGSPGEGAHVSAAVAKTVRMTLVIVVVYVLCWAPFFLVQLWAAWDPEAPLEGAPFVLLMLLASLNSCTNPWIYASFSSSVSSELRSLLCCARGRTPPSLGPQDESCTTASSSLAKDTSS

inhibition at 0.1 µM (human V-1 receptor)	IC50 (V2)	SMILES	V1 Bdg % inh (human V-1 receptor)	V2 Bdg % inh (V2)	further results
7%	13 nM	Cc1ccccc1C(=O)Nc1ccc(C(=O)N2CC3COCCN3Cc3ccccc32)c(C)c1 (racemic) [Compound 27, (RS)-2-M ethyl-N-[3-methyl-4-(1,3,4,12a-tetrahydro-6H-[1,4]oxazino[4,3-a][1,4]-benzodiazepin-11(12H)-yl-carbonyl)phenyl]benzamide]	–	–	–
–	–	CN1CCN2Cc3ccccc3N(C(=O)c3ccc(NC(=O)c4cc(F)c(F)c(F)c4F)cc3Cl)CC2C1 (racemic) [Compound 93, (RS)-2,3,4,5-Tetrafluoro-N-[3-chloro-4-(1,3,4,12a-tetrahydro-2-methyl-6H-(1,4]pyrazino[4,3-a][1,4]-benzodiazepin-11(12H)-yl-carbonyl)phenyl]benzamide]	(49%/1 uM)	(24%/0.1 uM)	–
–	–	Cc1c(I)cccc1C(=O)Nc1ccc(C(=O)N2CC3CSCCN3Cc3ccccc32)c(Cl)c1 (racemic) [Compound 44, (RS)-2-Methyl-3-iodo-N-[3-chloro-4-(1,3,4,12a-tetrahydro-6H-[1,4]thiazino[4,3-a][1,4]-benzodiazepin-11(12H)-yl-carbonyl)phenyl]benzamide]	–	(43%/0.1 uM)	V1 Bdg (% inh, 0.1 uM) (human V-1 receptor; 0.1 uM): 2%
9%	18 nM	O=C(Nc1ccc(C(=O)N2CC3CSCCN3Cc3cc(F)ccc32)c(Cl)c1)c1ccccc1-c1ccccc1 (racemic) [Compound 38, (RS)-2-Phenyl-N-[3-chloro-4-(8-fluoro-1,3,4,12a-tetrahydro-6H-[1,4]thiazino[4,3-a][1,4]-benzodiazepin-11 (12H)-yl-carbonyl)phenyl]benzamide]	–	–	–
–	43 nM	COc1ccc2c(c1)CN1CCSCC1CN2C(=O)c1ccc(NC(=O)c2ccccc2-c2ccccc2)cc1 (racemic) [Compound 31, (RS)-2-Phenyl-N-[4-(8-methoxy-1,3,4,12a-tetrahydro-6H-[1,4]thiazino[4,3-a][1,4]-benzodiazepin-11(12H)-yl-carbonyl)phenyl]benzamide]	–	–	inhibition at 10 µM (human V-1 receptor): 27%
33%	10 nM	O=C(Nc1ccc(C(=O)N2CC3COCCN3Cc3ccccc32)c(O)c1)c1ccccc1-c1ccccc1 (racemic) [Compound 23, (RS)-2-Phenyl-N-[3-hydroxy-4-(1,3,4,12a-tetrahydro-6H-[1,4]oxazino[4,3-a][1,4]-benzodiazepin-11(12H)-yl-carbonyl)phenyl]benzamide]	–	–	–
–	–	COc1cc(C(=O)N2CC3CN(C)CCN3Cc3ccccc32)ccc1NC(=O)c1ccccc1-c1ccccc1 (racemic) [Compound 72, (RS)-2-Phenyl-N-[2-methoxy-4-(1,3,4,12a-tetrahydro-2-methyl-6H-[1,4]pyrazino[4,3-a][1,4]-benzodiazepin-11(12H)-yl-carbonyl)phenyl]benzamide]	(6%/1 uM)	(48%/0.1 uM)	–
–	38 nM	O=C(Nc1ccc(C(=O)N2CC3CSCCN3Cc3cc(F)c(F)cc32)cc1)c1ccccc1-c1ccccc1 (racemic) [Compound 35, (RS)-2-Phenyl-N-[4-(8,9-difluoro-1,3,4,12a-tetrahydro-6H-[1,4]thiazino[4,3-a][1,4]-benzodiazepin-11(12H)-yl-carbonyl)phenyl]benzamide]	–	–	inhibition at 10 µM (human V-1 receptor): 15%
–	–	COc1cc(NC(=O)c2ccccc2C)ccc1C(=O)N1CC2CN(C)CCN2Cc2ccccc21 (racemic) [Compound 83, (RS)-2-Methyl-N-[3-methoxy-4-(1,3,4,12a-tetrahydro-2-methyl-6H-[1,4]pyrazino[4,3-a][1,4]-benzodiazepin-11(12H)-yl-carbonyl)phenyl]benzamide]	(44%/1 uM)	(10%/0.1 uM)	–
11%	8 nM	Cc1cccc(C(=O)Nc2ccc(C(=O)N3CC4COCCN4Cc4ccccc43)c(Cl)c2)c1C (racemic) [Compound 11, (RS)-2,3-Dimethyl-N-[3-chloro-4-(1,3,4,12a-tetrahydro-6H-[1,4]oxazino[4,3-a][1,4]-benzodiazepin-11(12H)-yl-carbonyl)phenyl]benzamide]	–	–	–
